Assay results taken from patent US7176234B2, “Derivatives of gambogic acid and analogs as activators of caspases and inducers of apoptosis” (priority 2002, dated 2007).
Entries after “also recorded” stand apart in the source; their conditions may differ. Read-outs that look alike come from different tables or passages of the source.

Legend:
T-47D = assay: Caspase cascade activation / apoptosis induction assay (N-(Ac-DEVD)-N'-ethoxycarbonyl-R110 substrate) in T-47D cells; assay type: cell-based, Human; settings: T47D cells
Experimental: Human breast cancer cell lines T-47D and ZR-75-1 were grown according to media component mixtures designated by American Type Culture Collection+10% FCS (Invitrogen Corporation), in a 5% CO2-95% humidity incubator at 37° C. T-47D and ZR-75-1 cells were maintained at a cell density between 30 and 80% confluency and for HL-60 at a cell density of 0.1 to 0.6×10^6 cells/ml. Cells were harvested at 600×g and resuspended at 0.65×10^6 cells/mL into appropriate media+10% FCS. An aliquot of 45 μl of cells was added to a well of a 96-well microtiter plate containing 5 μl of a 10% DMSO in RPMI-1640 media solution containing 1.6 to 100 μM of gambogic acid or other test compound (0.16 to 10 μM final). An aliquot of 45 μl of cells was added to a well of a 96-well microtiter plate containing […] of a 10% DMSO in RPMI-1640 media solution without test compound as the control sample. The samples were mixed by agitation and then incubated at 37° C. for 24 h in a 5% CO2-95% humidity incubator. After incubation, the samples were removed from the incubator and 50 μl of a solution containing 20 μM of N-(Ac-DEVD)-N′-ethoxycarbonyl-R110 fluorogenic substrate SEQ ID NO:1 (Cytovia, Inc.; U.S. Pat. No. 6,335,429), 20% sucrose (Sigma), 20 mM DTT (Sigma), 200 mM NaCl (Sigma), 40 mM Na PIPES buffer pH 7.2 (Sigma), and 500 μg/mL lysolecithin (Calbiochem) was added. The samples were mixed by agitation and incubated at room temperature. Using a fluorescent plate reader (Model 1420 Wallac Instruments), an initial reading (T=0) was made approximately 1–2 min after addition of the substrate solution, employing excitation at 485 nm and emission at 530 nm, to determine the background fluorescence of the control sample. After approximately 3 h of incubation, the samples were read for fluorescence as above (T=3 h).
The Relative Fluorescence Unit values (RFU) were used to calculate the sample readings as follows: RFU(T=3h)−Control RFU(T=0)=Net RFU(T=3h)
The activity of caspase cascade activation was determined by the ratio of the net RFU value for derivatives of gambogic acid to that of control samples. The EC50 (nM) was determined by a sigmoidal dose-response calculation (Prism 2.0, GraphPad Software Inc.).
Methyl 9,10-dihydro-10-morpholinyl-gambogate and gambogic acid were assayed as described in Example 28 in T47D cells. The samples of cells and testing compound were incubated for 5 h and 24 h, respectively. Table II summarizes the caspase activity (Ratio) and potency (EC50) of methyl 9,10-dihydro-10-morpholinyl-gambogate (compound B) in the 5 h and 24 h assays, in comparison with that of gambogic acid (compound A).

[1] = Conversion of methyl 9,10-dihydro-10-morpholinyl-gambogate to methyl gambogate in biological media (HPLC); assay type: physicochemical
Experimental: A solution of methyl 9,10-dihydro-10-morpholinyl-gambogate in 87.5% RPMI 1640 biological Media (Invitrogen Corporation, Carlsbad, Calif.), 5.6% EtOH, 1.3% DMSO, and 5.6% Cremophor EL at a concentration of 5 mg/ml was stored at 37° C. The amount of methyl 9,10-dihydro-10-morpholinyl-gambogate (compound B) and methyl gambogate (compound C) was measured by integration of the peak area. The HPLC was run in the Beckman System Gold with 32 Karate software under the following conditions: […]

MX-1 (Breast cancer) = assay: Efficacy in human tumor xenograft mouse model MX-1; assay type: in vivo, human tumor in CD1 nu/nu mice; settings: MX-1 xenograft, 50 mg/kg, every day, I.V.
Experimental: (§1) CD1 nu/nu mice were used. Viable tumor bits of transplantable human xenografts approximately 50 mg of trocar or cultured human tumor cells (nx106 cells?) were implanted subcutaneously into the flank region of mice and tumors were allowed to grow to the desired average size of 100 mg. The mice were measured for tumor size and those within the accepted tumor range of 75–125 mg, were randomized into control and treatment groups with 8–9 mice per group. Treatment was initiated on these groups which have an average starting tumor size of 100 mg. The control group was injected with the vehicle used to dissolve the drug. Injections were I.V. via the tail vein. Tumor measurements were taken every other day along with weights of animals and all animals were observed daily for survival. Tumor size was calculated by the equation of: Tumor volume=(length×width^2)/2.

[2] = test system: human tumor xenograft models; assay: Efficacy studies in human tumor xenograft models (text summary, model not named); assay type: in vivo, human tumor in nu/nu mice
Experimental: as §1

[3] = Pharmacokinetic studies in mice (plasma, LC/MS/MS); assay type: in vivo, ICR mice; settings: mice, single I.V. dose 50 mg/kg
Experimental: ICR mice were administered a single dose of drug into the tail vein. At each time point, 3 animals were sacrificed and the blood was withdrawn by cardiac puncture. The blood cells were spun down and the plasma was collected and frozen immediately in liquid nitrogen. For sample processing, the plasma was thawed and extraction solvent was added along with an internal standard to assess recoveries. The samples were vortexed followed by centrifugation, and the extraction solution was collected and subjected to LC/MS/MS analysis to identify and quantitate the compound plasma concentration. The levels of compound from the three animals at each time point were averaged and the pharmacokinetic parameters calculated using WinNonLin program. Table V summarized the major PK parameters.

[4] = test system: SW620 (colorectal cancer); assay: Efficacy in human tumor xenograft mouse model SW620; assay type: in vivo, human tumor in CD1 nu/nu mice; settings: 75 mg/kg, every day, I.V.
Experimental: as §1

ICR (CD-1) mice = assay: Maximum tolerated dose (MTD) in mice, I.V.; assay type: in vivo; settings: mouse, in vivo
Experimental: For acute toxicity studies, 3 ICR (CD-1) mice were used per each dose group. Animals were given a single bolus injection in the tail vein with approximately 100 μl volume of compound formulation or vehicle formulation. Mice body weights were measured daily along with daily observation for clinical abnormalities. The maximum tolerated dose (MTD) was defined as the dose that results in less than 10% decrease in body weight with no clinical abnormalities.
For multiple dose studies, the animals were dosed once a day for 5 days.
Table IV summarizes the MTD of gambogic acid and methyl 9,10-dihydro-10-morpholinyl-gambogate in mice by I.V. administration.

COC(=O)C(C)=CCC12OC(C)(C)C3CC(C1=O)C(N1CCOCC1)C1C(=O)c4c(O)c5c(c(CC=C(C)C)c4OC132)OC(C)(CCC=C(C)C)C=C5 (stereo not drawn) [B, Methyl 9,10-dihydro-10-morpholinyl-gambogate]
Activity in the caspase activation / apoptosis induction assay (in words), 5 h (T-47D; 5 h assay): not active
Caspase activity (Ratio), 5 h (T-47D; 5 h assay): 1.2
EC50 (T-47D; 5 h assay, read-out: Caspase potency EC50, 5 h): > 10 µM
Activity in the caspase activation / apoptosis induction assay (in words), 24 h (T-47D; 24 h assay): active
Caspase activity (Ratio), 24 h (T-47D; 24 h assay): 19
EC50 (T-47D; 24 h assay, read-out: Caspase potency EC50, 24 h): 3.8 µM
Conversion to methyl gambogate (reversal of Michael addition) in biological media (in words) ([1]; 37° C., RPMI biological media): reverse to methyl gambogate; also recorded: converted slowly
Amount in biological media, 0 h ([1]; solution of compound B 5 mg/ml in 87.5% RPMI 1640, 37° C., HPLC peak area, 0 h): 92
Amount in biological media, 2 h ([1]; solution of compound B 5 mg/ml in 87.5% RPMI 1640, 37° C., HPLC peak area, 2 h): 92
Amount in biological media, 18 h ([1]; solution of compound B 5 mg/ml in 87.5% RPMI 1640, 37° C., HPLC peak area, 18 h): 72
Amount in biological media, 48 h ([1]; solution of compound B 5 mg/ml in 87.5% RPMI 1640, 37° C., HPLC peak area, 48 h): 49
Amount in biological media, 90 h ([1]; solution of compound B 5 mg/ml in 87.5% RPMI 1640, 37° C., HPLC peak area, 90 h): 28
% Tumor reduction (MX-1 (Breast cancer)): 60%
Body weight loss / behavioral changes in efficacy studies ([2]; several human tumor xenograft models): no significant body weight loss or abnormal behavioral changes
Efficacy (in words) ([2]; summary of Table VI, gambogic acid at its maximal tolerable dose): good efficacy
CL, Clearance [3]: 0.14 L/h/kg
T1/2, Terminal half-life [3]: 27.6 h
Vss, Vol. of distribution [3]: 2.12 L/kg
AUC (0-inf), Area under the curve ([3]; plasma): 353,021 ng-h/ml
% Tumor reduction [4]: 58%
Acute MTD (ICR (CD-1) mice): >100 mg/kg
Injection site toxicity (ICR (CD-1) mice): substantially reduced
Multiple Dose MTD (ICR (CD-1) mice; iv): Once a day, 5 doses: >100 mg/kg
Systemic toxicity / tolerability (in words) (ICR (CD-1) mice; iv): significantly less systemic toxicity than gambogic acid
